From patent US20260317337A1, “HETEROCYCLIC COMPOUNDS FOR IMAGING AGGREGATED ALPHA SYNUCLEIN IN THE SYNUCLEINOPATHIES” (THE TRUSTEES OF THE UNIVERSITY OF PENNSYLVANIA, priority 2023, published 2026) come the findings set out here.

For this assay, the target named is α-synuclein fibrils (Homo sapiens, UniProt P37840). Put plainly: Competitive radioligand binding with [^3H]BF2846 on α-synuclein fibrils. To be noted: [^3H]BF2846, α-synuclein fibrils; mean + Sd, n = 3; read-out: α-syn Ki. As for the experimental part: Competition binding assays were performed with [^3H]BF2846 and [^3H]PIB to measure affinity to Asyn and Aβ. […]

The structures appear in SMILES notation.

Usually Ki stands for a measure of affinity in units of concentration, obtained from inhibition or displacement. Regarding `CCOC(=O)c1cnc(N2CCN(c3ccccn3)CC2)nc1N` [Compound 9, Ethyl 4-amino-2-(4-(pyridin-2-yl)piperazin-1-yl)pyrimidine-5-carboxylate], the Ki was found to be 4 nM.

In the case of `Cc1cnc(N2CCN(c3ccccn3)CC2)nc1N` [Compound 39, 5-Methyl-2-(4-(pyridin-2-yl)piperazin-1-yl)pyrimidin-4-amine], the Ki came to 84.1 nM.

Take `O=C(Nc1ccc(N2C3CCC2CN(c2ccccn2)C3)cc1)c1ccc(OCCF)cc1` [Compound 116, 4-(2-fluoroethoxy)-N-(4-(3-(pyridin-2-yl)-3,8-diazabicyclo[3.2.1]octan-8-yl)phenyl)benzamide]: the Ki turned out to be 12.7 ± 2.3 nM.

For the compound `CCOC(=O)c1cnc(N2CCN(c3nc4ccccc4o3)CC2)nc1N` [Compound 10, Ethyl 4-amino-2-(4-(benzo[d]oxazol-2-yl)piperazin-1-yl)pyrimidine-5-carboxylate], the Ki was found to be 2.5 nM.

Turning to `N#Cc1cnc(N2CCN(c3ccccn3)CC2)nc1N` [Compound 41, 4-Amino-2-(4-(pyridin-2-yl)piperazin-1-yl)pyrimidine-5-carbonitrile], the inhibition constant (Ki) is 7.5 nM.

Regarding `COc1ccc(NC(=O)c2cnc(N3CCN(c4cccnc4)CC3)nc2N)cc1` [Compound 118, 4-Amino-N-(4-methoxyphenyl)-2-(4-(pyridin-3-yl)piperazin-1-yl)pyrimidine-5-carboxamide], the Ki turned out to be 142 nM.

As for `COc1ccc(NC(=O)c2cnc(N3CCN(c4nccs4)CC3)nc2N)cc1` [Compound 124, 4-Amino-N-(4-methoxyphenyl)-2-(4-(thiazol-2-yl)piperazin-1-yl)pyrimidine-5-carboxamide], the Ki was 29.9 nM.

Turning to `Nc1nc(N2CCN(c3ccccn3)CC2)ncc1C(=O)Nc1ccc(F)cc1` [Compound 34, 4-Amino-N-(4-fluorophenyl)-2-(4-(pyridin-2-yl)piperazin-1-yl)pyrimidine-5-carboxamide], the Ki was 10 nM.

Regarding `CCOC(=O)c1cnc(N2CCN(c3cnccn3)CC2)nc1N` [Compound 121, Ethyl 4-amino-2-(4-(pyrazin-2-yl)piperazin-1-yl)pyrimidine-5-carboxylate], the Ki is 8.4 nM.

Consider `CCOC(=O)c1cnc(N2CCN(c3cnc4ccccc4c3)CC2)nc1N` [Compound 14, Ethyl 4-amino-2-(4-(quinolin-3-yl)piperazin-1-yl)pyrimidine-5-carboxylate], for which the Ki came to 3.1 nM.

In the case of `CCOC(=O)c1cnc(N2CCN(c3nccs3)CC2)nc1N` [Compound 123, Ethyl 4-amino-2-(4-(thiazol-2-yl)piperazin-1-yl)pyrimidine-5-carboxylate], the Ki turned out to be 51.1 nM.

With `CCOC(=O)c1cnc(N2CCCN(c3ccccn3)CC2)nc1N` [Compound 7, Ethyl 4-amino-2-(4-(pyridin-2-yl)-1,4-diazepan-1-yl)pyrimidine-5-carboxylate], the Ki came to 8.9 nM.

Regarding `COc1ccc(NC(=O)c2cnc(N3CCN(c4nc5ccccc5s4)CC3)nc2N)cc1` [Compound 27, 4-Amino-2-(4-(benzo[d]thiazol-2-yl)piperazin-1-yl)-N-(4-methoxyphenyl)pyrimidine-5-carboxamide], the Ki amounted to 1.1 nM.

For the compound `COc1ccc(C(=O)Nc2ccc(N3CCCN(c4ccccn4)CC3)cc2)cc1` [Compound 107, 4-methoxy-N-(4-(4-(pyridin-2-yl)-1,4-diazepan-1-yl)phenyl)benzamide], the Ki came out at 8.7 ± 0.6 nM.

As for `COc1ccc(NC(=O)c2cnc(N3CCN(c4ccc(OC)cc4)CC3)nc2N)cc1` [Compound 33, 4-Amino-N-(4-methoxyphenyl)-2-(4-(4-methoxyphenyl)piperazin-1-yl)pyrimidine-5-carboxamide], the Ki turned out to be 44.5 nM.

As to `CCOC(=O)c1cnc(N2CCN(c3cc4ccccc4cn3)CC2)nc1N` [Compound 13, Ethyl 4-amino-2-(4-(isoquinolin-3-yl)piperazin-1-yl)pyrimidine-5-carboxylate], the inhibition constant Ki is 12.1 nM.

In the case of `CCOC(=O)c1cnc(N2C3CCC2CN(c2nc4ccccc4s2)C3)nc1N` [Compound 12, Ethyl 4-amino-2-(3-(benzo[d]thiazol-2-yl)-3,8-diazabicyclo[3.2.1]octan-8-yl)pyrimidine-5-carboxylate], the Ki was 23.4 nM.

In the case of `CCOC(=O)c1cnc(N2C3CCC2CN(c2cnc4ccccc4c2)C3)nc1N` [Compound 3, Ethyl 4-amino-2-(3-(quinolin-3-yl)-3,8-diazabicyclo[3.2.1]octan-8-yl)pyrimidine-5-carboxylate], the Ki came to 23.3 nM.

Regarding `COc1ccc(C(=O)Nc2ccc(N3CCN(c4ccccn4)CC3)cn2)cc1` [Compound 109, 4-methoxy-N-(5-(4-(pyridin-2-yl)piperazin-1-yl)pyridin-2-yl)benzamide], the Ki is 5 ± 0.34 nM.

As to `CCOC(=O)c1cnc(N2CCN(c3ccc(OC)cc3)CC2)nc1N` [Compound 17, Ethyl 4-amino-2-(4-(4-methoxyphenyl)piperazin-1-yl)pyrimidine-5-carboxylate], the Ki was found to be 12.8 nM.

Regarding `CCOC(=O)c1cnc(N2C3CCC2CN(c2ccccn2)C3)nc1N` [Compound 1, Ethyl 4-amino-2-(3-(pyridin-2-yl)-3,8-diazabicyclo[3.2.1]octan-8-yl)pyrimidine-5-carboxylate], the Ki came out at 11.6 nM.

As for `CCOC(=O)c1cnc(N2CCN(c3ncccn3)CC2)nc1N` [Compound 119, Ethyl 4-amino-2-(4-(pyrimidin-2-yl)piperazin-1-yl)pyrimidine-5-carboxylate], the Ki worked out at 19.5 nM.

Turning to `CCOC(=O)c1cnc(N2CC3CCC(C2)N3c2cc3ccccc3cn2)nc1N` [Compound 5, Ethyl 4-amino-2-(8-(isoquinolin-3-yl)-3,8-diazabicyclo[3.2.1]octan-3-yl)pyrimidine-5-carboxylate], the Ki turned out to be 58.5 nM.

In the case of `COc1ccc(NC(=O)c2cnc(N3CCN(c4nc5ccccc5o4)CC3)nc2N)cc1` [Compound 26, 4-Amino-2-(4-(benzo[d]oxazol-2-yl)piperazin-1-yl)-N-(4-methoxyphenyl)pyrimidine-5-carboxamide], the Ki amounted to 6 nM.

Regarding `COc1ccc(C(=O)Nc2ccc(N3C4CCC3CN(c3cnc5ccccc5n3)C4)cc2)cc1` [Compound 105, 4-methoxy-N-(4-(3-(quinoxalin-2-yl)-3,8-diazabicyclo[3.2.1]octan-8-yl)phenyl)benzamide], the Ki is 47.6 ± 14 nM.

In the case of `COc1ccc(C(=O)Nc2ccc(N3CC(OC)C3)cc2)cc1` [Compound 115, 4-methoxy-N-(4-(3-methoxyazetidin-1-yl)phenyl)benzamide], the Ki turned out to be 28.6 ± 33 nM.

For `CCOC(=O)c1cnc(N2CCN(c3nc4ccccc4s3)CC2)nc1N` [Compound 11, Ethyl 4-amino-2-(4-(benzo[d]thiazol-2-yl)piperazin-1-yl)pyrimidine-5-carboxylate], the Ki amounted to 12.9 nM.

Turning to `COc1ccc(NC(=O)c2cnc(N3C4CCC3CN(c3cc5ccccc5cn3)C4)nc2N)cc1` [Compound 19, 4-Amino-2-(3-(isoquinolin-3-yl)-3,8-diazabicyclo[3.2.1]octan-8-yl)-N-(4-methoxyphenyl)pyrimidine-5-carboxamide], the Ki came to 45 nM.

`CCOC(=O)c1cnc(N2CC3CCC(C2)N3c2cnc3ccccc3c2)nc1N` [Compound 6, Ethyl 4-amino-2-(8-(quinolin-3-yl)-3,8-diazabicyclo[3.2.1]octan-3-yl)pyrimidine-5-carboxylate]: the Ki turned out to be 9.9 nM.

For the compound `Nc1nc(N2CCN(c3ccccn3)CC2)ncc1C(=O)Nc1ccc(OC[C@H](O)CF)cc1` [Compound 135, (S)-4-amino-N-(4-(3-fluoro-2-hydroxypropoxy)phenyl)-2-(4-(pyridin-2-yl)piperazin-1-yl)pyrimidine-5-carboxamide], the Ki is 16.9 nM.

On to `Nc1nc(N2CCN(c3nc4ccccc4o3)CC2)ncc1C(=O)Nc1ccc(OCCF)cc1` [Compound 133, 4-Amino-2-(4-(benzo[d]oxazol-2-yl)piperazin-1-yl)-N-(4-(2-fluoroethoxy)phenyl)pyrimidine-5-carboxamide], for which the Ki was found to be 1.26 nM.

Regarding `CCOC(=O)c1cnc(N2CC3CCC(C2)N3c2ccccn2)nc1N` [Compound 4, Ethyl 4-amino-2-(8-(pyridin-2-yl)-3,8-diazabicyclo[3.2.1]octan-3-yl)pyrimidine-5-carboxylate], the Ki was 5.5 nM.

In the case of `COc1ccc(C(=O)Nc2ccc(N3C4CCC3CN(c3ccccn3)C4)cn2)cc1` [Compound 110, 4-methoxy-N-(5-(3-(pyridin-2-yl)-3,8-diazabicyclo[3.2.1]octan-8-yl)pyridin-2-yl)benzamide], the Ki worked out at 44.1 ± 32 nM.

Consider `COc1ccc(NC(=O)c2cnc(Cl)nc2)cc1` [Compound 43, 2-Chloro-N-(4-methoxyphenyl)pyrimidine-5-carboxamide], for which the Ki came to 6.5 nM.

Regarding `CCOC(=O)c1cnc(N2CCCN(c3cnc4ccccc4c3)CC2)nc1N` [Compound 8, Ethyl 4-amino-2-(4-(quinolin-3-yl)-1,4-diazepan-1-yl)pyrimidine-5-carboxylate], the Ki is 15.2 nM.

Regarding `COc1ccc(NC(=O)c2cnc(N3CC4CCC(C3)N4c3cnc4ccccc4c3)nc2N)cc1` [Compound 126, 4-Amino-N-(4-methoxyphenyl)-2-(8-(quinolin-3-yl)-3,8-diazabicyclo[3.2.1]octan-3-yl)pyrimidine-5-carboxamide], the inhibition constant Ki is 522 nM.

Consider `Nc1nc(N2CCN(c3ccccn3)CC2)ncc1C(=O)OCCO` [Compound 37, 2-Hydroxyethyl 4-amino-2-(4-(pyridin-2-yl)piperazin-1-yl)pyrimidine-5-carboxylate], for which the Ki was 41.4 nM.

`COc1ccc(NC(=O)c2cnc(N3CC4CCC(C3)N4c3cc4ccccc4cn3)nc2N)cc1` [Compound 21, 4-Amino-2-(8-(isoquinolin-3-yl)-3,8-diazabicyclo[3.2.1]octan-3-yl)-N-(4-methoxyphenyl)pyrimidine-5-carboxamide]: the inhibition constant Ki is 255 nM.

For `CCOC(=O)c1cnc(N2CCN(c3cnc4ccccc4n3)CC2)nc1N` [Compound 16, Ethyl 4-amino-2-(4-(quinoxalin-2-yl)piperazin-1-yl)pyrimidine-5-carboxylate], the Ki worked out at 2.4 nM.
